This is an account of results in ChEMBL document CHEMBL1138435, “A novel antibacterial iridoid and triterpene from Caiophora coronata” (2003).

One assay concerns Enterococcus faecium. Put plainly: Antimicrobial activity against vancomycin-resistant Enterococcus faecium 379 after 18 hrs by twofold serial microbroth dilution method. Conditions: Enterococcus faecium, 379, 18 h. In kind it is functional. (In general: Dilution methods test growth across graded concentrations, often in twofold steps.)
Assay [1] deals with Escherichia coli. Put plainly: Antimicrobial activity against Escherichia coli 442 after 18 hrs by agar diffusion method. It counts as functional, organism-based. A general note: A growth-free zone around the sample is the usual read-out of agar diffusion tests.
In the next assay the test system is Bacillus subtilis. Nature of the assay: Antimicrobial activity against Bacillus subtilis 327 after 18 hrs by twofold serial microbroth dilution method. It counts as functional. Conditions: Bacillus subtilis, 327, 18 h.
The test system of assay [2] is Escherichia coli. Nature of the assay: Antimicrobial activity against Escherichia coli 389 after 18 hrs by twofold serial microbroth dilution method. It counts as functional. Conditions: Escherichia coli, 389, 18 h.
The subject of assay [3] is Staphylococcus aureus. Put plainly: Antimicrobial activity against methicillin-sensitive Staphylococcus aureus 375 after 18 hrs by twofold serial microbroth dilution method. It counts as functional. The settings on record: Staphylococcus aureus, 375, 18 h.
Assay [4] relates to Staphylococcus aureus. Nature of the assay: Antimicrobial activity against methicillin-resistant Staphylococcus aureus 310 after 18 hrs by twofold serial microbroth dilution method. It counts as functional. Conditions: Staphylococcus aureus, 310, 18 h.
For a further assay, the system named is Candida albicans. Put plainly: Antimicrobial activity against Candida albicans 54 after 18 hrs by agar diffusion method. In kind it is functional.
Assay [5] relates to Escherichia coli. Put plainly: Antimicrobial activity against Escherichia coli 442 after 18 hrs by twofold serial microbroth dilution method. Conditions: Escherichia coli, 442, 18 h. It counts as functional.

≈ marks a conversion by molar mass, not a printed value. Calls of active or inactive are those of the source. No cut-off for these calls is given here.

For `C[C@H]1[C@H](C)CC[C@]2(C)CC[C@]3(C(=O)O)C(=CC[C@@H]4[C@@]5(C)[C@H](O)C[C@H](O)C(C)(C)[C@@H]5CC[C@]43C)[C@H]12`, the MIC is 4 µg/mL (≈ 8.46 µM) with Enterococcus faecium; 2 µg/mL (≈ 4.23 µM) against Bacillus subtilis; 16 µg/mL (≈ 33.8 µM) in the assay on Escherichia coli [2]; 4 µg/mL (≈ 8.46 µM) against Staphylococcus aureus [3]; 4 µg/mL (≈ 8.46 µM) in the assay on Staphylococcus aureus [4]. The “inhibition zone (IZ)” value in the assay on Escherichia coli [1] and in the assay with Candida albicans was “inactive” in each case.
`CO[C@H]1OC(=O)[C@H](C)[C@@H]2[C@@H]1[C@@H](CO)C[C@@H]2O` [CAIOPHORAENIN]: the minimum inhibitory concentration (MIC) with Enterococcus faecium, in the assay on Bacillus subtilis, against Escherichia coli [2], in the assay with Staphylococcus aureus [3], in the assay with Staphylococcus aureus [4] and with Escherichia coli [5] was more than 128 µg/mL in each case. Besides, the “inhibition zone (IZ)” value in the assay on Escherichia coli [1] and with Candida albicans was “inactive” each time.
As for `C[C@@H]1[C@@H]2COC(=O)C[C@H]2C[C@@H]1O` [ISOBOONEIN], the MIC against Enterococcus faecium, against Bacillus subtilis, with Escherichia coli [2], in the assay on Staphylococcus aureus [3], against Staphylococcus aureus [4] and in the assay on Escherichia coli [5] was more than 128 µg/mL each time. The “inhibition zone (IZ)” value in the assay on Escherichia coli [1] and in the assay with Candida albicans was “inactive” throughout.
As to `CC1(C)S[C@@H]2[C@H](NC(=O)Cc3ccccc3)C(=O)N2[C@H]1C(=O)O` [PENICILLIN G], the MIC against Enterococcus faecium was 32 µg/mL (≈ 95.7 µM); against Bacillus subtilis, 32 µg/mL (≈ 95.7 µM); in the assay with Escherichia coli [2], 4 µg/mL (≈ 12 µM); with Staphylococcus aureus [3], 0.06 µg/mL (≈ 0.179 µM); in the assay on Staphylococcus aureus [4], 128 µg/mL (≈ 383 µM); with Candida albicans (Candida albicans, 54, 18 h) it was more than 128 µg/mL.

The MIC is the least concentration at which growth counts as inhibited. Read a low MIC as a more susceptible organism.
